Measurements taken from patent US20250179024A1, “AMYLOID AND ASSOCIATED PATHOLOGY MODULATORS AND METHODS THEREOF” (Jawaharlal Nehru Centre for Advanced Scientific Research, priority 2022, published 2025).

Key:
Type in all cases: cell-based
C6 microglial cells = assay: Bio-AFM study of microglial activation; conditions: Aβ 5 μM, compound 10 μM
Method: Microglia activation and its alleviation was studied by Bio-AFM technique combining the indirect immunofluorescence by confocal microscopy and cellular mechanical properties characterization by AFM. C6 microglia was used as model cells and Aβ as pathological stimuli for the study. C6 cells were cultured in glass bottom confocal dishes to attain 70% confluence. The cells were primed to activation by using 500 ng/mL of LPS in low serum media (2.5% FBS). Then microglial cells were treated with 5 μM Aβ42 alone and with NMIs (M3) for 18 h. Then the cells were fixed and probed for Iba1 marker by indirect immunofluorescence, counter stained with Phalloidin rhodamine (200 nM) for actin labeling to visualize the actin distribution and DAPI (1 μM) for labeling the nucleus. The samples were washed thrice using dPBS and subjected to Bio-AFM imaging.
The Bio-AFM studies were performed in Bioscope Resolve AFM integrated with Olympus Fluoview-3000 Confocal laser scanning microscope (Bruker). The original confocal stage was removed and replaced with the Bruker Bio-AFM stage. For the confocal images aspect ratio was fixed to 4:3 with channel size of 640×480 and 3-point calibration was done to obtain proper overlay and pixel scaling was optimized by setting 0.375 μ/pixel. Region of interest was selected in the confocal using 60× oil immersion objective (Olympus plan Apo N) and on selected region AFM probe was landed using MIROVIEW window. Peak Force Quantitative Nanomechanical Mapping (PF-QNM) in Fluid mode was used for imaging the cells wherein this mode works based on Peakforce tapping principle. From this mode, height, log DMT and adhesion force of the samples was recorded. The log DMT was calculated using Derjaguin, Muller, Toropov (DMT) model using the formula given below. Studies were performed using MLCT BIO-F probe made up of non-conductive silicon nitride, coated with reflective Au with spring constant of 0.60 N/m and tip radius of 20 nm. Images were recorded with scanning speed of 0.5 Hz with 512 samples per line. The confocal images were recorded in DAPI, Alex488 and rhodamine channels. AFM data was analyzed using NanoScope analysis software (1.9 version) and confocal images were analyzed using Image J. Ftip=4/3E*√Rd3+Fadh, where Ftip=Force on tip, Fadh=Adhesion force, R=Tip radius and d=Tip sample separation.
C6 microglial cells were used as model and Aβ as stimuli for microglial activation that mimics AD conditions. The C6 cells were primed with LPS (500 ng/mL) for 4 h followed by treatment with Aβ (5 μM) alone and with M3 (10 μM) for 18 h. The cells were stained for Iba1, actin (phalloidin-rhodamine) and nucleus (DAPI), and the samples were subjected to confocal and AFM imaging using integrated Bio-AFM instrument.

Nrf2 = Nrf2 localisation by indirect immunofluorescence; conditions: Aβ treated SH-SY5Y cells
Method: Cells were cultured in confocal dishes up to 70% confluence and then treated with Aβ alone and with NMIs (M3), and subjected to immunofluorescence. The cells were washed twice with dPBS and then fixed with 4% paraformaldehyde for 15 min. The cells were then washed twice with dPBS for 5 min followed by treatment with permeabilization buffer (dPBS with 0.1% Triton X-100) for 10 min. The permeabilization buffer was aspirated and rinses with dPBS twice for 5 min. The samples were blocked with 10% goat serum in dPBS for 30 min at room temperature. The blocking solution was aspirated and then was treated with primary antibody (Nrf2/Iba1) with desired dilution in 4° C. with gentle shaking overnight. The samples were then washed with dPBS thrice for 5 min each and treated with Alexa Fluor-488 conjugated secondary antibody for 1 h in room temperature. The cells were washed with dPBS thrice and counterstain with DAPI (1 μM) for 10 min and imaged using confocal microscope.
M3 with in vitro antioxidant activity and in cellulo ROS quenching effect was expected to alleviate oxidative stress and modulate Nrf2 response. The effect of M3 on Nrf2 localisation in Aβ treated SH-SY5Y cells were assessed by indirect immunofluorescence staining study. […]

SH-SY5Y cells = assay: Mitochondrial ROS measurement, MitoSOX; conditions: Aβ 40 μM, 8 h, Aβ alone 1.76 fold
Method: For quantifying mitochondrial ROS levels, SH-SY5Y cells were seeded into 96 well plates and incubated. After 24 h cells were treated with Aβ (20 μM) alone and with two different concentrations of NMIs (M3) (20 and 50 μM) for 8 h and stained with MitoSox Red (5 μM) in PBS for 15 min followed by a wash with PBS thrice. Then quickly fluorescence was measured (λex=510 nm and λem=580 nm) by Spectramax multi-well plate reader in well scan mode (>80 points, with 6 flashes per read). The relative fluorescence was used to assess ROS levels with respect to control. For ROS imaging, cells were seeded onto glass bottom dishes and incubated for 24 h. Cells were treated with Aβ (20 μM) and with NMIs (M3) (50 μM) in low serum media for 8 h. Then the cells were washed with PBS and stained with MitoSOX (5 μM) prepared in PBS and incubated. After 15 min, wash thrice with PBS and imaged in live cell set up in rhodamine channel using 63× oil immersion using Leica DMi8 fluorescence microscope.
Changes in MMP were visualized by treating the cells with Aβ (20 μM) alone and with M3 (50 μM) for 18 h followed by staining with MitoOrange. […] The ability of M3 to modulate Aβ-induced ROS levels in mitochondria was evaluated by the MitoSOX probe. The cells were treated with Aβ (40 μM) alone and with two concentrations of M3 for 8 h followed by treatment with MitoSOX to measure the relative ROS levels. […]

SMILES: O=C1c2cccc3c(N(Cc4ccccn4)Cc4ccccn4)ccc(c23)C(=O)N1CCc1ccc(O)c(O)c1 [M3, 6-(bis(pyridin-2-ylmethyl)amino)-2-(3,4-dihydroxyphenethyl)-1H-benzo[de]isoquinoline-1,3(2H)-dione]
- log DMT modulus (cellular stiffness) (C6 microglial cells; Aβ treated ~2.06±0.20 Pa, control ~1.38±0.19 Pa): ~1.32±0.15
- height of microglial cells (C6 microglial cells; activated ~5.13±0.29, control ~2.03±0.18): ~3.03 µm
- adhesive force (C6 microglial cells; activated ~5.30±0.24, control 3.21±0.23): ~3.57±0.25 nN
- Iba1 level compared to Aβ treated cells (C6 microglial cells; LPS 500 ng/mL, 18 h): reduced significantly
- Iba1 localisation with actin (C6 microglial cells; LPS 500 ng/mL, 18 h): reduced the Iba1 localisation with actin
- actin redistribution to the periphery of Aβ treated microglial cells (C6 microglial cells; LPS 500 ng/mL, 18 h): reduced
- translocation of Nrf2 to the nucleus (Nrf2): reduced the translocation of Nrf2 to the nucleus
- mitochondrial ROS levels compared to control cells (SH-SY5Y cells; compound 20 μM): 1.6 fold
- mitochondrial ROS levels compared to control cells (SH-SY5Y cells; compound 50 μM): 1.25 fold
